From PubChem BioAssay AID1745844 (Carcinogenic Potency Database (CPDB), 2022)
Active and inactive are the calls of the source. How the calls were made is not given here.

Test system: rodent lifetime carcinogenesis bioassay, tumor incidence TD50
Assay: chronic cancer bioassays in animals – CPDB, compiled studies (AID 1745844)

## O=CNNC=O
mouse, strain Swiss albino, females, in drinking water, site: liver, lesion: hepatoma, dosed 83 weeks, study length 83 weeks
  TD50: 7820 mg/kg/day (inactive)
mouse, strain Swiss albino, females, in drinking water, site: liver, lesion: several types, types named in the paper, dosed 83 weeks, study length 83 weeks
  TD50: 89200 mg/kg/day
mouse, strain Swiss albino, females, in drinking water, site: lung, lesion: adenocarcinoma, dosed 83 weeks, study length 83 weeks
  TD50: 2170 mg/kg/day
mouse, strain Swiss albino, females, in drinking water, site: lung, lesion: adenoma, dosed 83 weeks, study length 83 weeks
  TD50: 561 mg/kg/day
mouse, strain Swiss albino, females, in drinking water, site: lung, lesion: several types, types named in the paper, dosed 83 weeks, study length 83 weeks
  TD50: 571 mg/kg/day
mouse, strain Swiss albino, males, in drinking water, site: liver, lesion: hepatoma, dosed 83 weeks, study length 83 weeks
  TD50: 11300 mg/kg/day (inactive)
mouse, strain Swiss albino, males, in drinking water, site: liver, lesion: several types, types named in the paper, dosed 83 weeks, study length 83 weeks
  TD50: 8140 mg/kg/day
mouse, strain Swiss albino, males, in drinking water, site: lung, lesion: adenocarcinoma, dosed 83 weeks, study length 83 weeks
  TD50: 4530 mg/kg/day
mouse, strain Swiss albino, males, in drinking water, site: lung, lesion: adenoma, dosed 83 weeks, study length 83 weeks
  TD50: 779 mg/kg/day
mouse, strain Swiss albino, males, in drinking water, site: lung, lesion: several types, types named in the paper, dosed 83 weeks, study length 83 weeks
  TD50: 806 mg/kg/day

## CC(Oc1cc(Cl)ccc1Cl)C(=O)O (stereo not drawn)
mouse, strain B6AKF1, females, oral dosing, site: any site (literature study), lesion: several types, types named in the paper, dosed 76 weeks, study length 76 weeks
  carcinogen call: negative (inactive)
mouse, strain B6AKF1, females, oral dosing, site: liver, lesion: hepatoma, dosed 76 weeks, study length 76 weeks
  carcinogen call: negative (inactive)
mouse, strain B6AKF1, females, oral dosing, site: lung, lesion: adenoma, dosed 76 weeks, study length 76 weeks
  carcinogen call: negative (inactive)
mouse, strain B6AKF1, males, oral dosing, site: any site (literature study), lesion: several types, types named in the paper, dosed 76 weeks, study length 76 weeks
  carcinogen call: negative (inactive)
mouse, strain B6AKF1, males, oral dosing, site: liver, lesion: hepatoma, dosed 76 weeks, study length 76 weeks
  carcinogen call: negative (inactive)
mouse, strain B6AKF1, males, oral dosing, site: lung, lesion: adenoma, dosed 76 weeks, study length 76 weeks
  carcinogen call: negative (inactive)
mouse, strain B6C3F1, females, oral dosing, site: any site (literature study), lesion: one or several types, types not named, dosed 76 weeks, study length 76 weeks
  carcinogen call: negative (inactive)
mouse, strain B6C3F1, females, oral dosing, site: liver, lesion: hepatoma, dosed 76 weeks, study length 76 weeks
  carcinogen call: negative (inactive)
mouse, strain B6C3F1, females, oral dosing, site: lung, lesion: several types, types named in the paper, dosed 76 weeks, study length 76 weeks
  carcinogen call: negative (inactive)
mouse, strain B6C3F1, males, oral dosing, site: any site (literature study), lesion: several types, types named in the paper, dosed 76 weeks, study length 76 weeks
  TD50: 10.5 mg/kg/day (inactive)
mouse, strain B6C3F1, males, oral dosing, site: liver, lesion: hepatoma, dosed 76 weeks, study length 76 weeks
  TD50: 36.7 mg/kg/day (inactive)
mouse, strain B6C3F1, males, oral dosing, site: lung, lesion: adenoma, dosed 76 weeks, study length 76 weeks
  TD50: 36.7 mg/kg/day (inactive)

## CC(O)CO (stereo not drawn)
rat, strain Charles River CD (Sprague-Dawley), females, in feed, site: liver, lesion: nodular hyperplasia, dosed 104 weeks, study length 104 weeks
  carcinogen call: negative (inactive)
rat, strain Charles River CD (Sprague-Dawley), males, in feed, site: liver, lesion: nodular hyperplasia, dosed 104 weeks, study length 104 weeks
  carcinogen call: negative (inactive)

## CN(C)C=O
mouse, strain Charles River CD1, females, inhaled, site: liver, lesion: hepatocellular adenoma, dosed 78 weeks, study length 78 weeks
  TD50: 15800 mg/kg/day (inactive)
mouse, strain Charles River CD1, males, inhaled, site: liver, lesion: hepatocellular adenoma, dosed 78 weeks, study length 78 weeks
  carcinogen call: negative (inactive)
mouse, strain Charles River CD1, males, inhaled, site: liver, lesion: hepatocellular carcinoma, dosed 78 weeks, study length 78 weeks
  TD50: 3070 mg/kg/day (inactive)
rat, strain Charles River CD (Sprague-Dawley), females, inhaled, site: liver, lesion: hepatocellular adenoma, dosed 104 weeks, study length 104 weeks
  carcinogen call: negative (inactive)
rat, strain Charles River CD (Sprague-Dawley), males, inhaled, site: liver, lesion: hepatocellular adenoma, dosed 104 weeks, study length 104 weeks
  TD50: 2640 mg/kg/day (inactive)
rat, strain Charles River CD (Sprague-Dawley), males, inhaled, site: liver, lesion: hepatocellular carcinoma, dosed 104 weeks, study length 104 weeks
  TD50: 3340 mg/kg/day (inactive)

## CCC(CC)[N+](=O)[O-]
rat, strain Fischer 344, males, by gavage, site: liver, lesion: hepatocellular carcinoma, dosed 50 weeks, study length 83 weeks
  TD50: 3.05 mg/kg/day
rat, strain Fischer 344, males, by gavage, site: liver, lesion: several types, types named in the paper, dosed 50 weeks, study length 83 weeks
  TD50: 2.37 mg/kg/day

## CN(C)CCN(C)N=O
hamster, strain Syrian Golden, females, by gavage, site: colon, lesion: several types, types named in the paper, dosed 61 weeks, study length 106 weeks
  TD50: 21 mg/kg/day
hamster, strain Syrian Golden, females, by gavage, site: liver, lesion: hepatocellular tumor, dosed 61 weeks, study length 106 weeks
  TD50: 44 mg/kg/day
hamster, strain Syrian Golden, females, by gavage, site: lung, lesion: alveolar/bronchiolar adenoma, dosed 61 weeks, study length 106 weeks
  TD50: 9.45 mg/kg/day
hamster, strain Syrian Golden, females, by gavage, site: nasal mucosa, lesion: malignant tumor, dosed 61 weeks, study length 106 weeks
  TD50: 9.45 mg/kg/day
hamster, strain Syrian Golden, females, by gavage, site: nasal mucosa, lesion: several types, types named in the paper, dosed 61 weeks, study length 106 weeks
  TD50: 2.76 mg/kg/day
hamster, strain Syrian Golden, males, by gavage, site: colon, lesion: adenocarcinoma, dosed 61 weeks, study length 106 weeks
  TD50: 38.7 mg/kg/day
hamster, strain Syrian Golden, males, by gavage, site: liver, lesion: hepatocellular tumor, dosed 61 weeks, study length 106 weeks
  TD50: 11.7 mg/kg/day
hamster, strain Syrian Golden, males, by gavage, site: nasal mucosa, lesion: malignant tumor, dosed 61 weeks, study length 106 weeks
  TD50: 38.7 mg/kg/day
hamster, strain Syrian Golden, males, by gavage, site: nasal mucosa, lesion: several types, types named in the paper, dosed 61 weeks, study length 106 weeks
  TD50: 6.25 mg/kg/day

## O=S(=O)(O)c1cc(S(=O)(=O)O)c2c(N=Nc3ccccc3)c(O)ccc2c1
mouse, strain B6C3F1, females, in feed, site: any site (literature study), lesion: several types, types named in the paper, dosed 103 weeks, study length 104 weeks
  carcinogen call: negative (inactive)
mouse, strain B6C3F1, males, in feed, site: any site (literature study), lesion: several types, types named in the paper, dosed 103 weeks, study length 103 weeks
  carcinogen call: negative (inactive)
mouse, strain B6C3F1, males, in feed, site: lung, lesion: alveolar/bronchiolar adenoma + alveolar/bronchiolar carcinoma, dosed 103 weeks, study length 103 weeks
  TD50: 22000 mg/kg/day
rat, strain Fischer 344, females, in feed, site: any site (literature study), lesion: several types, types named in the paper, dosed 103 weeks, study length 104 weeks
  carcinogen call: negative (inactive)
rat, strain Fischer 344, males, in feed, site: any site (literature study), lesion: several types, types named in the paper, dosed 103 weeks, study length 104 weeks
  TD50: 2710 mg/kg/day
rat, strain Fischer 344, males, in feed, site: liver, lesion: hepatocellular adenoma + hepatocellular carcinoma + neoplastic nodule, dosed 103 weeks, study length 104 weeks
  TD50: 620 mg/kg/day
rat, strain Fischer 344, males, in feed, site: tunica vaginalis, lesion: mesothelioma, NOS + mesothelioma, malignant, dosed 103 weeks, study length 104 weeks
  TD50: 915 mg/kg/day (inactive)
